This is an account of results in patent US4588526A, “Bronchodilatory azepino(1,2-A)pyrimidine derivatives and acid addition salts thereof and bronchodilating pharmaceutical compositions containing same” (Chinoin Gyogyszer es Vegyeszeti Termekek Gyara Rt, priority 1982, dated 1986).

For assay [1], the system named is spasm induced by 5-hydroxy-tryptamine. The assay is described as follows: Konzett test, inhibition of spasm induced by 5-hydroxy-tryptamine. Format: in vivo, guinea-pigs. The settings on record: guinea-pig Konzett test; for ED50: Cavia porcellus, read-out: ID50 spasm inhibition induced by 5-hydroxy-tryptamine. Here is the method: (§1) The activity was determined on the basis of inhibition of spasm induced by three endogenic spasmogenic agents (5-hydroxy-tryptamine histamine, acetyloholine).

For assay [2], the system named is spasm induced by histamine. The assay is described as follows: Konzett test, inhibition of spasm induced by histamine. It counts as in vivo, guinea-pigs. The settings on record: guinea-pig Konzett test; for ED50: Cavia porcellus, read-out: ID50 spasm inhibition induced by histamine. As for the experimental part:
as §1

For assay [3], the system named is spasm induced by acetylcholine. As to the kind of experiment: Konzett test, inhibition of spasm induced by acetylcholine. It counts as in vivo, guinea-pigs. The settings on record: guinea-pig Konzett test; for ED50: Cavia porcellus, read-out: ID50 spasm inhibition induced by acetylcholine. As for the experimental part: as §1
In assay [4] the test system is spasm induced by three endogenic spasmogenic agents. As to the kind of experiment: Konzett test, duration of activity and comparison with known compounds. It counts as in vivo, guinea-pigs. To be noted: guinea-pig Konzett test; marks all three ID50 values. As for the experimental part:
The activity of the compounds of the invention was examined by Konzett test (Konzett H. and, Rossler R., Arch. Exp. Path. Pharm., 1940, 195 71) using guinea-pigs. The activity was determined on the basis of inhibition of spasm induced by three endogenic spasmogenic agents (5-hydroxy-tryptamine histamine, acetyloholine).

For another assay, the system named is human bronchus. As to the kind of experiment: Human bronchus test, inhibition of Carbacol-induced contraction. To be noted: contraction by 1 μmole Carbacol, 37 C; for IC50: amount for 50% inhibition. An excerpt:
As a further Example the activity of the compound of the formula IX is illustrated by human bronchus test. Human bronchus obtained surgically was dipped into an oxygenized physiological solution of 37 C. The contraction is induced by 1 μmole Carbacol.

The conditions of assay [5]: Drugs of the Future 1981, 6, 362; cited from earlier work.

Consider `O=c1c2c(nc3n1CCCCC3)CCCC2` [drawing 10], for which the “ID50 spasm inhibition induced by 5-hydroxy-tryptamine” value in assay [1] turned out to be 15.7 µmol/kg. Further, in assay [2], the “ID50 spasm inhibition induced by histamine” value was 5.4 µmol/kg. For the same molecule, the “ID50 spasm inhibition induced by acetylcholine” value in assay [3] was determined as 6.3 µmol/kg.
Take `O=c1c2c(nc3n1CCCCC3)CCC2`: the results for the ED50 in assay [1], in assay [2] and in assay [3] were 13.8 µmol/kg, 6.5 µmol/kg and 3.7 µmol/kg, respectively.
For the molecule `O=c1c2c(nc3n1CCCCC3)CCCC2` [drawing 9], the “ID50 spasm inhibition induced by 5-hydroxy-tryptamine” value in assay [1] came out at 3.0 µmol/kg. In addition, the ED50 stood at 3.1 µmol/kg in assay [2] and 7.8 µmol/kg in assay [3]. Also, the “duration of activity (footnote x)” value in assay [4] was “long-lasting activity”.
What is called IC50 is the concentration needed to halve the response being measured. Read a low IC50 as inhibition by little substance. `O=c1c2c(nc3n1CCCCC3)CCCC2` [IX] gave a half-maximal inhibitory concentration (IC50) in the assay on human bronchus (Homo sapiens) of 5.4 µM. Besides, in the assay on human bronchus (Homo sapiens, dosage 10^-4 (10^-4.0) mole/1, read-out: spasm reduction), the inhibition at 100 µM came to 184%. In addition, the inhibition at 31.62 µM in the assay on human bronchus (Homo sapiens, dosage 10^-4.5 mole/1, read-out: spasm reduction) was found to be 113%. In addition, in the assay with human bronchus (Homo sapiens, dosage 10^-5.0 mole/1, read-out: spasm reduction), the inhibition at 10 µM amounted to 48%. The inhibition at 3.162 µM with human bronchus (Homo sapiens, dosage 10^-5.5 mole/1, read-out: spasm reduction) came to 23%. The inhibition at 1 µM with human bronchus (Homo sapiens, dosage 10^-6.0 mole/1, read-out: spasm reduction) turned out to be 3%.
`O=c1c2ccccc2nc2n1CCCCC2` [6,7,8,9,10,12-hexahydroazepino[2,1-b]quinazoline-12-one]: the bronchodilatory activity result in assay [5] was “displays bronchodilatory activity”.
For `O=c1c2ccccc2nc2n1CCCCC2` [drawing 12, reference compound], the ED50 in assay [1] came out at 36 µmol/kg; in assay [2] it was 6.2 µmol/kg; in assay [3], 26.3 µmol/kg.
“theophilline anisate [reference compound]”: in assay [1], the “ID50 spasm inhibition induced by 5-hydroxy-tryptamine” value stood at 14.0 µmol/kg. The “ID50 spasm inhibition induced by histamine” value in assay [2] was 14.0 µmol/kg. Besides, the “ID50 spasm inhibition induced by acetylcholine” value in assay [3] was determined as 22.0 µmol/kg. This molecule displayed an IC50 in the assay on human bronchus of 150 µM. Also, the spasm reduction in the assay on human bronchus (dosage 10^-3.75 mole/1, 177.8 µM) came out at 64%; in the assay with human bronchus (dosage 10^-4 (10^-4.0) mole/1, 100 µM), 28%; with human bronchus (dosage 10^-4.25 mole/1, 56.23 µM) it was 10%; in the assay with human bronchus (dosage 10^-4.5 mole/1, 31.62 µM), 5%.
